Source: paper PMC9030254, “Target Hopping from Protein Kinases to PXR: Identification of Small-Molecule Protein Kinase Inhibitors as Selective Modulators of Pregnane X Receptor from TüKIC Library” (Cells, 2022)

Experiments:
Assay in all cases: Kinase profiling
Assay type in all cases: biochemical
RET = biological target: T1, RET (Homo sapiens, UniProt P07949)
T1 construct: purchased ProQinase (Freiburg, Germany)
Protocol: (§1) The analysis was performed by ProQinase (Freiburg, Germany).

RIPK4 = biological target: T2, RIPK4 (Homo sapiens, UniProt P57078)
T2 construct: purchased ProQinase (Freiburg, Germany)
T2 sequence (P57078 1-832): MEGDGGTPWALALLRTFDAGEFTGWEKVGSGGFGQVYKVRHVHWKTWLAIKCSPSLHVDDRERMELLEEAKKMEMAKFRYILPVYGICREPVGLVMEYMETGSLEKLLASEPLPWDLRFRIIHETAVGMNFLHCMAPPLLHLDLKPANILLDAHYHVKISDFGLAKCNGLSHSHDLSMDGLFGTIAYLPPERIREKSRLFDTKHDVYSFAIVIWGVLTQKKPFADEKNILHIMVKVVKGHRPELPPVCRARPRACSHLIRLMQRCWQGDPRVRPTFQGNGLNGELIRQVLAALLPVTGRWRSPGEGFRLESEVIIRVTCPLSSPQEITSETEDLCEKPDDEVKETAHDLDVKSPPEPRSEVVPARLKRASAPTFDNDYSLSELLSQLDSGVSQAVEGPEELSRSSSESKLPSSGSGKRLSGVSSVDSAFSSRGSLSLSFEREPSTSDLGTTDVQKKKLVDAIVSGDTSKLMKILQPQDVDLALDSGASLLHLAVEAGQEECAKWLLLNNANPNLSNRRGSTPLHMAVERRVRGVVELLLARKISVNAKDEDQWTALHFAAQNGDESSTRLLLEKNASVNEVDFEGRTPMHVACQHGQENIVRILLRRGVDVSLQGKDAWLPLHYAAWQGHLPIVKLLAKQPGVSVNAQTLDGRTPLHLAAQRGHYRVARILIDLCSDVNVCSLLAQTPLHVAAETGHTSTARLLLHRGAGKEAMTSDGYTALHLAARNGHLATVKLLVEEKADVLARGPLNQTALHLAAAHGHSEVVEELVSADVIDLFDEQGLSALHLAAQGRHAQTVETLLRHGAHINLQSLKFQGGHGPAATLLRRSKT
Protocol: as §1

TGFBR2 = biological target: T3, TGFBR2 (Homo sapiens, UniProt P37173)
T3 construct: purchased ProQinase (Freiburg, Germany)
Protocol: as §1

RON = biological target: T4, RON (Homo sapiens, UniProt Q04912)
T4 construct: purchased ProQinase (Freiburg, Germany)
Protocol: as §1

GSK3alpha = biological target: T5, GSK3alpha (Homo sapiens, UniProt P49840)
T5 construct: purchased ProQinase (Freiburg, Germany)
Protocol: as §1

INSR = biological target: T6, INSR (Homo sapiens, UniProt P06213)
T6 construct: purchased ProQinase (Freiburg, Germany)
Protocol: as §1

CAMK2D = biological target: T7, CAMK2D (Homo sapiens, UniProt Q13557)
T7 construct: purchased ProQinase (Freiburg, Germany)
Protocol: as §1

BMPR1A = biological target: T8, BMPR1A (Homo sapiens, UniProt P36894)
T8 construct: purchased ProQinase (Freiburg, Germany)
Protocol: as §1

CAMK2G = biological target: T9, CAMK2G (Homo sapiens, UniProt Q13555)
T9 construct: purchased ProQinase (Freiburg, Germany)
Protocol: as §1

MYLK2 = biological target: T10, MYLK2 (Homo sapiens, UniProt Q9H1R3)
T10 construct: purchased ProQinase (Freiburg, Germany)
Protocol: as §1

PAK2 = biological target: T11, PAK2 (Homo sapiens, UniProt Q13177)
T11 construct: purchased ProQinase (Freiburg, Germany)
Protocol: as §1

ERK2 = biological target: T12, ERK2 (Homo sapiens, UniProt P28482)
T12 construct: purchased ProQinase (Freiburg, Germany)
Protocol: as §1

ERBB2 = biological target: T13, ERBB2 (Homo sapiens, UniProt P04626)
T13 construct: purchased ProQinase (Freiburg, Germany)
Protocol: as §1

MELK = biological target: T14, MELK (Homo sapiens, UniProt Q14680)
T14 construct: purchased ProQinase (Freiburg, Germany)
Protocol: as §1

MST1 = biological target: T15, MST1 (Homo sapiens, UniProt Q13043)
T15 construct: purchased ProQinase (Freiburg, Germany)
T15 sequence (Q13043 1-487): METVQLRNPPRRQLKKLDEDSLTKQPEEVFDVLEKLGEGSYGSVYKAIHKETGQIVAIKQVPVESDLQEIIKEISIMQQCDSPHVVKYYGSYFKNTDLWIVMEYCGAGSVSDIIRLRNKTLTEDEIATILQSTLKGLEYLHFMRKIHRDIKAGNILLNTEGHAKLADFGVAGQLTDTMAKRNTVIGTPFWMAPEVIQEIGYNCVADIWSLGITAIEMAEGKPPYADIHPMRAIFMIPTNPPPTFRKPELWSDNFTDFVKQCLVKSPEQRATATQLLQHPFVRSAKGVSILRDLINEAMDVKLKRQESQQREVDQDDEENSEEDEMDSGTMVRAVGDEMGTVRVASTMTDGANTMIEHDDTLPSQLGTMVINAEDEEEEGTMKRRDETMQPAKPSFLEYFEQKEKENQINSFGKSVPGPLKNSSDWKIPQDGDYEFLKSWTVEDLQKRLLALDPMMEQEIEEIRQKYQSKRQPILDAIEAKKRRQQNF
Protocol: as §1

AKT1 = biological target: T16, AKT1 (Homo sapiens, UniProt P31749)
T16 construct: purchased ProQinase (Freiburg, Germany)
Protocol: as §1

CDK9/CycK = biological target: T17, CDK9/CycK (Homo sapiens, UniProt P50750)
T17 construct: purchased ProQinase (Freiburg, Germany)
Protocol: as §1

PKCalpha = biological target: T18, PKCalpha (Homo sapiens, UniProt P17252)
T18 construct: purchased ProQinase (Freiburg, Germany)
Protocol: as §1

CDC42BPA = biological target: T19, CDC42BPA (Homo sapiens, UniProt Q5VT25)
T19 construct: purchased ProQinase (Freiburg, Germany)
Protocol: as §1

FER = biological target: T20, FER (Homo sapiens, UniProt P16591)
T20 construct: purchased ProQinase (Freiburg, Germany)
Protocol: as §1

T3 sequence (P37173 23-567): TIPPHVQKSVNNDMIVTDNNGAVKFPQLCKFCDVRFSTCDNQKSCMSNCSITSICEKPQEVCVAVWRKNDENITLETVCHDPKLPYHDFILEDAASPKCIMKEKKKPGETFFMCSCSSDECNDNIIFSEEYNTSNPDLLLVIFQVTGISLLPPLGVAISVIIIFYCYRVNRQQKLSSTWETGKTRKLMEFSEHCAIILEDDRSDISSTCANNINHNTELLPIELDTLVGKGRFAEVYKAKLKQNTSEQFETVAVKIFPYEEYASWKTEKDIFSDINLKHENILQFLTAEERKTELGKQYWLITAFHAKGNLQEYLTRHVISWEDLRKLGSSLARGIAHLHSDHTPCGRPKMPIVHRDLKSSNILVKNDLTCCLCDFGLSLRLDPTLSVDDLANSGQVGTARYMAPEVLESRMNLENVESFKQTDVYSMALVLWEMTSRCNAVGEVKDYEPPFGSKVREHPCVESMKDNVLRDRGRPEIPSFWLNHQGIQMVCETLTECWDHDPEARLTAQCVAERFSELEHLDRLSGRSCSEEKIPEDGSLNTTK
T20 sequence (P16591 whole entry): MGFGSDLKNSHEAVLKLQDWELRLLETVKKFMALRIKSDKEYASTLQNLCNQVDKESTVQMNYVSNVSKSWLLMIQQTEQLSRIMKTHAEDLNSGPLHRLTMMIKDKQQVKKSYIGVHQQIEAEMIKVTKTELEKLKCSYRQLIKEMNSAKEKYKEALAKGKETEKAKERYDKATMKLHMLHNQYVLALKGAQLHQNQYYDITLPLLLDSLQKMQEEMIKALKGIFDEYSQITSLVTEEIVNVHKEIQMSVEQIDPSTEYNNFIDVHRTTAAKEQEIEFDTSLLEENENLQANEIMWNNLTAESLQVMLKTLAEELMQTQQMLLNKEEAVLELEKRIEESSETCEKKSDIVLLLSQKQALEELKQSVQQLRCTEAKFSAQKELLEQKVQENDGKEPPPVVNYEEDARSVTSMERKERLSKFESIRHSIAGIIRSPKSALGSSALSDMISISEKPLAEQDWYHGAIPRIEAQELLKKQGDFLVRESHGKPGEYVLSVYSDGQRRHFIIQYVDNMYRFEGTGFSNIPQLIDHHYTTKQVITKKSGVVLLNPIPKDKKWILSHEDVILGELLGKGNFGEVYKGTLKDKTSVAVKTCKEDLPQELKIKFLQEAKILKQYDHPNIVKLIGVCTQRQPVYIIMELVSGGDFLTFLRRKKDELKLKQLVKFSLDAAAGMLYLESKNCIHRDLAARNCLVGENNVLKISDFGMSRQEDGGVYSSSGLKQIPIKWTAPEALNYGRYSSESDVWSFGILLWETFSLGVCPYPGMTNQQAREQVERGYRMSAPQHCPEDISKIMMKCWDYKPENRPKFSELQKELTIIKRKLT
T17 sequence (P50750 whole entry): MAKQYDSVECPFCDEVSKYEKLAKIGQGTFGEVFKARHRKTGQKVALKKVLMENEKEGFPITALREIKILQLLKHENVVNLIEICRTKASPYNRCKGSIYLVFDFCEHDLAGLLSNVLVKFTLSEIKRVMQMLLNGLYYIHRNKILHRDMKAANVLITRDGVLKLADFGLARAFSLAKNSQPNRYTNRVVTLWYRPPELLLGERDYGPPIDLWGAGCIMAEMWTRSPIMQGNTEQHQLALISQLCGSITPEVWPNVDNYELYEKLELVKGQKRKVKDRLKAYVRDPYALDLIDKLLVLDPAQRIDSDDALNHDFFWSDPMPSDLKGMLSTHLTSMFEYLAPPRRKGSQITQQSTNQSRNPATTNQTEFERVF
T17 sequence (O75909 whole entry partner): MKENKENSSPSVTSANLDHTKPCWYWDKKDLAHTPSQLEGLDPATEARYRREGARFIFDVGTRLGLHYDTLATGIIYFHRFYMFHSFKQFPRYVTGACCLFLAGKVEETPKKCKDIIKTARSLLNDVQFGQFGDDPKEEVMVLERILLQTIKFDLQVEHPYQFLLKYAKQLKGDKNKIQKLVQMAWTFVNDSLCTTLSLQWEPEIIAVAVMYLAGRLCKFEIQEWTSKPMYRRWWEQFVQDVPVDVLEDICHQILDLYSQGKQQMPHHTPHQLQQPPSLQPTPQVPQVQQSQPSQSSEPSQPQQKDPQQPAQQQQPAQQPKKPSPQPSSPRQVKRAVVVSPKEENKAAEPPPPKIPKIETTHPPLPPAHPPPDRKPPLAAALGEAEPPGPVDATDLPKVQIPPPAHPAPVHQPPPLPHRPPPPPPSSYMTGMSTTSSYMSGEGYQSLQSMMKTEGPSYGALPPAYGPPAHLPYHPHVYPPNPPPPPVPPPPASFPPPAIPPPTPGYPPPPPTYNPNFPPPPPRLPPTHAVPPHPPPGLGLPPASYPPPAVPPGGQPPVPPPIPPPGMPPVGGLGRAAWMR
T13 sequence (P04626 23-1255): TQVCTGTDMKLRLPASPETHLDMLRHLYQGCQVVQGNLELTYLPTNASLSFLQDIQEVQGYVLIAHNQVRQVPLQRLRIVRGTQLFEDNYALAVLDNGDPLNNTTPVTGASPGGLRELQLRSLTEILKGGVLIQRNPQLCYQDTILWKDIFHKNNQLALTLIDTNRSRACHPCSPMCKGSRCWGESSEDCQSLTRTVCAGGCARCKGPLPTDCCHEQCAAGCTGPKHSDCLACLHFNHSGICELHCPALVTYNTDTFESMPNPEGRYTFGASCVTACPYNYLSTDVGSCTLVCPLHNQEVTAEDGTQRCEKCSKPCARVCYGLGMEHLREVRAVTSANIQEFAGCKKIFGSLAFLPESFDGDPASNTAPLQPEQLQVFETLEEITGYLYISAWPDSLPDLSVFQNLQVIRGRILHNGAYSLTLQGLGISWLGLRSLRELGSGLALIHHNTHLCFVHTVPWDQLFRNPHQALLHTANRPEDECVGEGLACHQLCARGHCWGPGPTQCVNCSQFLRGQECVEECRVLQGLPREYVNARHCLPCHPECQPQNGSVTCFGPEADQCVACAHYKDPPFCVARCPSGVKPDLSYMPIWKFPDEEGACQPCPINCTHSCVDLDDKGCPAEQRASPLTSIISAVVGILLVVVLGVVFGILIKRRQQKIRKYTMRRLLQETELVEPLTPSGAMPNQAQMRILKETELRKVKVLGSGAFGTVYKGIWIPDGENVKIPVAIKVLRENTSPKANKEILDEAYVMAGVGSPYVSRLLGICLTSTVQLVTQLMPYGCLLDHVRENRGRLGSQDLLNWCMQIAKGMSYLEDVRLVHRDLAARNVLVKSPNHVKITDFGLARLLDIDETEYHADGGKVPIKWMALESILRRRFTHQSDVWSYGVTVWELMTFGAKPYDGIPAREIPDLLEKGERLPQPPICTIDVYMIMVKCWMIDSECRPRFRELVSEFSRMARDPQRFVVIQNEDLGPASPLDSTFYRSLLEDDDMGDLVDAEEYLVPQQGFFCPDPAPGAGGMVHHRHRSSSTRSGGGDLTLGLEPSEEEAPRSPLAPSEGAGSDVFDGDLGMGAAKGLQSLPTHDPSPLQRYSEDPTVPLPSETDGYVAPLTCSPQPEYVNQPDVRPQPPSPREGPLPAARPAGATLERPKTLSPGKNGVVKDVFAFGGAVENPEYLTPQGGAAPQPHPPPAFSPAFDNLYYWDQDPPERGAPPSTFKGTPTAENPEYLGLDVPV
T6 sequence (P06213 28-1382): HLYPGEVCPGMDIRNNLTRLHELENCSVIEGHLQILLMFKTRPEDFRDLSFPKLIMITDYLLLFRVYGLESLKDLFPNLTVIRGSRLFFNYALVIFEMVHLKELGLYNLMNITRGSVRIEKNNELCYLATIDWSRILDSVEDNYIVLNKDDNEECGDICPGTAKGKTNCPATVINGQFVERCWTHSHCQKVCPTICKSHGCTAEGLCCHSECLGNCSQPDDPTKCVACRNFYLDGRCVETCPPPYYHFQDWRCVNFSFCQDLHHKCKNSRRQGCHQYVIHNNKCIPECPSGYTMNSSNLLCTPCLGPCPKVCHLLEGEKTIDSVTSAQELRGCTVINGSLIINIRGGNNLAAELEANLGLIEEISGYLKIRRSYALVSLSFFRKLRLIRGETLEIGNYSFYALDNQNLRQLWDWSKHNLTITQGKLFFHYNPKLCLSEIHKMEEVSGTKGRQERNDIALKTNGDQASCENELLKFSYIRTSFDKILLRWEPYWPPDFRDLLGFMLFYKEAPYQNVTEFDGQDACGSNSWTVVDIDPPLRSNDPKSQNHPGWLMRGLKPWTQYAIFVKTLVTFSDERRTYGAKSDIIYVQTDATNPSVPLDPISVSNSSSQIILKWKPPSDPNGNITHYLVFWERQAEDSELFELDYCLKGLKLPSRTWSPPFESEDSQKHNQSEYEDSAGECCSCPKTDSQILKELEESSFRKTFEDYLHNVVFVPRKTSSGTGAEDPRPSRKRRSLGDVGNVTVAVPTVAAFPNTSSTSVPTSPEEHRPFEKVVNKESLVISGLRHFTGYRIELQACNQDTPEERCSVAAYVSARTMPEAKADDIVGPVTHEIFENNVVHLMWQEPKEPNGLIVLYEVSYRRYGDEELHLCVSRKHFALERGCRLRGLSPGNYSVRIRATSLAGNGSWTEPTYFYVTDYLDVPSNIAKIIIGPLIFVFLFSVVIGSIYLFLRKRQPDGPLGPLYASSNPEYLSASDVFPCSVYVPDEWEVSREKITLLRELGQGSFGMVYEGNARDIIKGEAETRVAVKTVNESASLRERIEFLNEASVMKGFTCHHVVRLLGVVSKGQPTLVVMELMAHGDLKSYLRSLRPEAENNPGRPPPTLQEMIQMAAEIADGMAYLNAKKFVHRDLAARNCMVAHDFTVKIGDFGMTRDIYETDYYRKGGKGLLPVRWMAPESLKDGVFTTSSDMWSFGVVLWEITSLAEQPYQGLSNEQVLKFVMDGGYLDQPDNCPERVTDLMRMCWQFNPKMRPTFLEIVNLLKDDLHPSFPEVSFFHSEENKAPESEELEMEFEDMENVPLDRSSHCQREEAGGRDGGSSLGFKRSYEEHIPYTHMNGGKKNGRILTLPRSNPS

SMILES	Residual activity (RET; 1.0E-05 M)	Residual activity (RET; 1.0E-06 M)	Residual activity (RIPK4; 1.0E-05 M)	Residual activity (RIPK4; 1.0E-06 M)	Residual activity (TGFBR2; 1.0E-05 M)	Residual activity (TGFBR2; 1.0E-06 M)	Residual activity (RON; 1.0E-05 M)	Residual activity (RON; 1.0E-06 M)	Residual activity (GSK3alpha; 1.0E-05 M)	Residual activity (GSK3alpha; 1.0E-06 M)	Residual activity (INSR; 1.0E-05 M)	Residual activity (INSR; 1.0E-06 M)	Residual activity (CAMK2D; 1.0E-05 M)	Residual activity (CAMK2D; 1.0E-06 M)	Residual activity (BMPR1A; 1.0E-05 M)	Residual activity (BMPR1A; 1.0E-06 M)	Residual activity (CAMK2G; 1.0E-05 M)	Residual activity (CAMK2G; 1.0E-06 M)	Residual activity (MYLK2; 1.0E-05 M)	Residual activity (MYLK2; 1.0E-06 M)	further results
O=C(Cc1ccccc1)Nc1ccc(F)c(Nc2ccc3c(c2)CCCCC3=O)c1 [Compound 100]	70 % of control	91 % of control	98 % of control	103 % of control	74 % of control	79 % of control	77 % of control	104 % of control	90 % of control	109 % of control	92 % of control	95 % of control	90 % of control	103 % of control	82 % of control	101 % of control	107 % of control	105 % of control	82 % of control	93 % of control	Residual activity (PAK2; 1.0E-05 M): 68 % of control; Residual activity (PAK2; 1.0E-06 M): 101 % of control; Residual activity (ERK2; 1.0E-05 M): 90 % of control; Residual activity (ERK2; 1.0E-06 M): 101 % of control; Residual activity (ERBB2; 1.0E-05 M): 79 % of control; Residual activity (ERBB2; 1.0E-06 M): 96 % of control; Residual activity (MELK; 1.0E-05 M): 90 % of control; Residual activity (MELK; 1.0E-06 M): 93 % of control; Residual activity (MST1; 1.0E-05 M): 92 % of control; Residual activity (MST1; 1.0E-06 M): 102 % of control; Residual activity (AKT1; 1.0E-05 M): 88 % of control; Residual activity (AKT1; 1.0E-06 M): 99 % of control; Residual activity (CDK9/CycK; 1.0E-05 M): 89 % of control; Residual activity (CDK9/CycK; 1.0E-06 M): 91 % of control; Residual activity (PKCalpha; 1.0E-05 M): 82 % of control; Residual activity (PKCalpha; 1.0E-06 M): 95 % of control; Residual activity (CDC42BPA; 1.0E-05 M): 110 % of control; Residual activity (CDC42BPA; 1.0E-06 M): 114 % of control; Residual activity (FER; 1.0E-05 M): 94 % of control; Residual activity (FER; 1.0E-06 M): 101 % of control
O=C(Nc1ccc(F)c(Nc2ccc3c(c2)CCCCC3=O)c1)c1cccc(F)c1 [Compound 109]	89 % of control	95 % of control	100 % of control	103 % of control	79 % of control	82 % of control	83 % of control	89 % of control	106 % of control	112 % of control	84 % of control	95 % of control	88 % of control	92 % of control	88 % of control	92 % of control	111 % of control	109 % of control	79 % of control	85 % of control	Residual activity (PAK2; 1.0E-05 M): 69 % of control; Residual activity (PAK2; 1.0E-06 M): 91 % of control; Residual activity (ERK2; 1.0E-05 M): 93 % of control; Residual activity (ERK2; 1.0E-06 M): 95 % of control; Residual activity (ERBB2; 1.0E-05 M): 86 % of control; Residual activity (ERBB2; 1.0E-06 M): 99 % of control; Residual activity (MELK; 1.0E-05 M): 90 % of control; Residual activity (MELK; 1.0E-06 M): 107 % of control; Residual activity (MST1; 1.0E-05 M): 98 % of control; Residual activity (MST1; 1.0E-06 M): 103 % of control; Residual activity (AKT1; 1.0E-05 M): 97 % of control; Residual activity (AKT1; 1.0E-06 M): 101 % of control; Residual activity (CDK9/CycK; 1.0E-05 M): 95 % of control; Residual activity (CDK9/CycK; 1.0E-06 M): 90 % of control; Residual activity (PKCalpha; 1.0E-05 M): 73 % of control; Residual activity (PKCalpha; 1.0E-06 M): 92 % of control; Residual activity (CDC42BPA; 1.0E-05 M): 116 % of control; Residual activity (CDC42BPA; 1.0E-06 M): 103 % of control; Residual activity (FER; 1.0E-05 M): 90 % of control; Residual activity (FER; 1.0E-06 M): 110 % of control
